For assay [1], the system named is thymocyte proliferation (cells from the thymus of normal BALB/c mice). Nature of the assay: comitogen-induced thymocyte proliferation procedure (LAF). The following applies: read-out: LAF IC50. It is filed as cell-based. As for the experimental part: Immunosuppressive activity was evaluated in an in vitro standard pharmacological test procedure to measure lymphocyte proliferation (LAF) and in an in vivo procedure in which the survival time of a pinch skin graft was evaluated.
The comitogen-induced thymocyte proliferation procedure (LAF) was used as an in vitro measure of the immunosuppressive effects of representative compounds. Briefly, cells from the thymus of normal BALB/c mice are cultured for 72 hours with PHA and IL-1 and pulsed with tritiated thymidine during the last six hours. […] Cells are harvested and incorporated; radioactivity is determined. Inhibition of lymphoproliferation is assessed in percent change in counts per minute from non-drug treated controls. […] [formula]

Assay [2] concerns Candida albicans ATCC 38248. The experiment in a line: Anti-Candida activity, plate test procedure, strain ATCC 38248. The following applies: ATCC38248, read-out: Anti-Candida Activity, Minimal Inhibitory Concentration (MIC). It is filed as cell-based. As for the experimental part:
(§1) Antifungal activity of the compounds of this invention was measured against 5 strains of Candida albicans using a plate test procedure for measurement of inhibition. The following represents the typical procedure used. Compound to be tested was placed on sterile dried 1/4" plate disks, and allowed to dry. Agar plates were seeded with fungi and allowed to solidify. The impregnated disks were placed on the seeded Agar surface and incubated for the time required for the particular culture. Results are expressed in MIC (μg/ml) to inhibit growth.

The test system of assay [3] is pinch skin grafts from male DBA/2 donors transplanted to male BALB/c recipients. The experiment in a line: survival time of pinch skin grafts (in vivo). Set-up: species or system BALB/c mice. The note with it: intraperitoneal; DBA/2 donors to BALB/c recipients. As for the experimental part: The recipients are treated with either varying concentrations of cyclosporin A as test control or the test compound, intraperitoneally. Untreated recipients serve as rejection control. The graft is monitored daily and observations are recorded until the graft becomes dry and forms a blackened scab. This is considered as the rejection day.

In another assay the test system is Candida albicans 3669. The experiment in a line: Anti-Candida activity, plate test procedure, strain 3669. It counts as cell-based. The following applies: read-out: Anti-Candida Activity, Minimal Inhibitory Concentration (MIC). On the procedure:
as §1

Assay [4] has as its system Candida albicans ATCC 38246. The experiment in a line: Anti-Candida activity, plate test procedure, strain ATCC 38246. The note with it: ATCC38246, read-out: Anti-Candida Activity, Minimal Inhibitory Concentration (MIC). It counts as cell-based. As for the experimental part: as §1
Assay [5] concerns Candida albicans ATCC 38247. Nature of the assay: Anti-Candida activity, plate test procedure, strain ATCC 38247. It counts as cell-based. The note with it: ATCC38247, read-out: Anti-Candida Activity, Minimal Inhibitory Concentration (MIC). On the procedure:
as §1

In assay [6] the test system is Candida albicans ATCC 10231. The experiment in a line: Anti-Candida activity, plate test procedure, strain ATCC 10231. It counts as cell-based. The note with it: ATCC10231, read-out: Anti-Candida Activity, Minimal Inhibitory Concentration (MIC). On the procedure: as §1
A further assay concerns Candida albicans. The note with it: especially against Candida albicans; cited from earlier work.
In another assay the test system is immune response. The note with it: cited from earlier work.
Setting [7] is: Mus musculus, Thymocyte, thymocytes cultured 72 hours with PHA and IL-1, tritiated thymidine last six hours.

In brackets after ≈: the same amount, converted by molar mass. Where two headings read alike, the source gives them in different places.

Usually IC50 stands for the concentration at which inhibition is half-maximal. Take “31-[O-[2-(trimethylsilyl)ethoxylmethyl]rapamycin [Example 3]”: the 50% inhibitory concentration (IC50) in assay [1] (thymocytes cultured 72 hours with PHA and IL-1, tritiated thymidine last six hours) was 17.2 nM.

Take `CO[C@H]1C[C@@H]2CC[C@@H](C)[C@@](O)(O2)C(=O)C(=O)N2CCCC[C@H]2C(=O)O[C@H]([C@H](C)C[C@@H]2CC[C@@H](O)[C@H](OC)C2)CC(=O)[C@H](C)/C=C(\C)[C@@H](OC(C)(C)OC)[C@@H](OC)C(=O)[C@H](C)C[C@H](C)/C=C/C=C/C=C/1C` [Example 1, 31-[O-(1-Methoxy-1-methyl)ethyl]rapamycin]: the MIC in assay [2] was determined as 0.1 µg/mL (≈ 0.101 µM); with Candida albicans 3669 it was 0.4 µg/mL (≈ 0.406 µM); in [4], 0.4 µg/mL (≈ 0.406 µM); in assay [5], 0.025 µg/mL (≈ 0.0253 µM); in assay [6] it was 0.025 µg/mL (≈ 0.0253 µM). Moreover, in [3], the “Skin Graft, mean survival days” value turned out to be 10.7 days. In assay [1] (setting [7]), the IC50 was found to be 3.2 nM.

For `CO[C@H]1C[C@@H]2CC[C@@H](C)[C@@](O)(O2)C(=O)C(=O)N2CCCC[C@H]2C(=O)O[C@H]([C@H](C)C[C@@H]2CC[C@@H](O)[C@H](OC)C2)CC(=O)[C@H](C)/C=C(\C)[C@@H](O)[C@@H](OC)C(=O)[C@H](C)C[C@H](C)/C=C/C=C/C=C/1C` [Rapamycin, reference compound], the MIC came to 0.006 µg/mL (≈ 0.00656 µM) in assay [2]; 0.25 µg/mL (≈ 0.273 µM) in the assay with Candida albicans 3669; 0.25 µg/mL (≈ 0.273 µM) in assay [4]; 0.03 µg/mL (≈ 0.0328 µM) in assay [5]; 0.03 µg/mL (≈ 0.0328 µM) in assay [6]. Moreover, the IC50 in assay [1] (Mus musculus, Thymocyte) fell in the range of 3.3 to 5.8 nM. For the same molecule, the “antifungal activity (in words)” value in the assay on Candida albicans is given as “profound antifungal activity”. Besides, in the assay with immune response, the “inhibition of the immune response (in words)” value is given as “inhibit the immune response”.

With `CO[C@H]1C[C@@H]2CC[C@@H](C)[C@@](O)(O2)C(=O)C(=O)N2CCCC[C@H]2C(=O)O[C@H]([C@H](C)C[C@@H]2CC[C@@H](OC(C)(C)OC)[C@H](OC)C2)CC(=O)[C@H](C)/C=C(\C)[C@@H](O)[C@@H](OC)C(=O)[C@H](C)C[C@H](C)/C=C/C=C/C=C/1C` [Example 2, 42-[O-(1-methoxy-1-methyl)ethyl]rapamycin], the MIC turned out to be 0.1 µg/mL (≈ 0.101 µM) in assay [2]; 0.2 µg/mL (≈ 0.203 µM) with Candida albicans 3669; 0.4 µg/mL (≈ 0.406 µM) in assay [4]; 0.025 µg/mL (≈ 0.0253 µM) in [5]; 0.025 µg/mL (≈ 0.0253 µM) in assay [6]. Moreover, in assay [1] (setting [7]), the IC50 worked out at 8.3 nM.

These data come from US5151413A (American Home Products Corporation, priority 1991, dated 1992).
